Columns and labels:
Assay type in all cases: cell-based
[1] = system: HCT116 cells; experiment: MTT cell viability assay in HCT116 cells
Protocol: The MTT assay was used to assess the effect of the compounds on cell viability. […] Subsequently, the culture medium was switched with a new medium containing DMSO (control) or the compound at a specified concentration. […] The plates were then incubated for 1 h at 37 °C. After this time, the supernatant was aspirated, and the formazan crystals were dissolved in 100 μL of DMSO in each well. Relative cell viability was calculated by measuring absorbance at 570 nm using a Benchmark Plus Microplate Reader (Bio-Rad Laboratories, Hercules, CA, USA).

[2] = system: SW480 cells; experiment: Cell proliferation assay and cell doubling time; conditions: 6.3 μM, ln(2)/cell growth rate
Description: Cell growth rates represent a characteristic of cell lines, indicating the rate at which the cell population size changes over time.[29] The commonly used metric for assessing the cell growth rate is the cell doubling time, which denotes the time required for a cell population to double in size. Cell doubling time can be estimated using the following formula: ln(2)/cell growth rate.[30] A time-dependent cell growth curve was constructed to elucidate the effect of compound 17 on the growth pattern of SW480 cells (Fig. 4). […] The cell concentration at each time point allowed us to determine the cell growth rate and subsequently calculate the cell doubling time. Compound 17 induced an increase in the doubling time of SW480 cells (69 h) compared to the control group (43 h). In summary, compound 17 affected the growth pattern of SW480 cells by increasing the cell doubling time, consequently decreasing the cell growth rate.
SW480 cells (1.68 × 10^5 cells per well) were seeded in 6-well plates and incubated at 37 °C for 24 h. The cells were then treated with compound 17 (IC50 value) for 24, 48 or 72 h. […] Cell viability was determined using the Invitrogen Countess 3 Automated Cell Counter (Thermo Fisher Scientific, Waltham, MA, USA). […]

[3] = system: SW480 cells; experiment: Cell cycle assay (PI, flow cytometry)
Protocol: To validate this hypothesis, compound 17 was administered at 6.3 μM to SW480 cells and incubated for 24, 48, and 72 h. Following each incubation period, the cells were fixed and permeabilized with 70% cold ethanol and stained with PI before flow cytometry analysis. At 24 h, compound 17 caused cell cycle arrest at the G0/G1 phase, as evidenced by a significant increase in the percentage of SW480 cells, from 54% in the control group to 66% in the treated group (Fig. 6). […] At 72 h, compound 17 had no impact on the cell cycle of SW480 cells, as observed in Fig. 6.
SW480 cells were seeded, treated, incubated, and collected, as described for the apoptosis assay. After centrifugation, the cells were resuspended in 500 μL DPBS, added dropwise to 4.5 mL of 70% (v/v) cold ethanol, and stored at −20 °C for at least 4 h. Each cell suspension was centrifuged, washed with cold DPBS, and resuspended in 350 μL DPBS and 10 μL RNase (10 mg mL^−1). After 1 h of incubation at 37 °C with agitation, the cells were stained with 20 μL of PI solution (1 mg mL^−1). A Gallios flow cytometer (Beckman Coulter, Brea, CA, USA) at a wavelength of 488 nm was used for FACS analysis. Data from 1 × 10^4 cells were collected, and a multicycle software (Phoenix Flow Systems, San Diego, CA, USA) was used for cell cycle analysis.

[4] = system: intracellular ROS levels in SW480 cells; experiment: Intracellular ROS quantification assay (H2DCFDA, flow cytometry); conditions: SW480, 6.3 μM
Protocol: Intracellular ROS levels can be quantified using lipophilic and non-fluorescent probes, such as 2′,7′-dichlorodihydrofluorescein diacetate (H2DCFDA).[60] To assess the effect of compound 17 on intracellular ROS levels, SW480 cells were treated with compound 17, followed by incubation with the H2DCFDA probe after 24, 48, and 72 h of treatment. After, the cells were subjected to flow cytometry to quantify the fluorescence intensity of 2′,7′-dichlorofluorescein (DCF), as shown in Fig. 9. […] Both effects of compound 17 contributed to the inhibition of SW480 cell growth.
SW480 cells were seeded at a density of 1.68 × 10^5 cells per well in 6-well plates and incubated at 37 °C for 24 h. The cells were then treated with compound 17 (IC50 value) for 24, 48, or 72 h. The adherent cells were trypsinized, washed with DPBS, collected by centrifugation, and resuspended in 1 mL of HBSS containing 50 μM H2DCFDA probe and 2 mM L-glutamine. After 45 min of incubation at 37 °C in a cell culture incubator, the cell suspensions were washed with 2 mL DPBS and collected by centrifugation. The cells were then stained with 350 μL of DPBS containing 20 μg per mL PI solution (1 mg mL^−1). Inside the cells, the H2DCFDA probe is deacetylated and undergoes oxidation in the presence of ROS, transforming into a DCF fluorescent compound. The fluorescence emitted by DCF from 1 × 10^4 PI-negative cells was measured at 520 nm using a Gallios flow cytometer (Beckman Coulter, Brea, CA, USA).

## CC(=O)Oc1c(C(C)C)cc2c(c1OC(C)=O)[C@@]1(NC(=O)OCC(C)C)CCCC(C)(C)[C@@H]1CC2 [Compound 17, (4bR,8aS)-8,8-Dimethyl-4b-{[(2-methylpropoxy)carbonyl]amino}-2-(propan-2-yl)-4b,5,6,7,8,8a,9,10-octahydrophenanthrene-3,4-diyl diacetate]
[1]; HCT116 cells, ratio of IC50 values
  fold more active than cisplatin: 1.2 fold
[1]; Homo sapiens, HCT-116, 72 h, read-out: IC50 HCT116
  IC50: 17 ± 2 µM
[2]
  cell doubling time: 69 h
[3]; 6.3 μM, 24 h (control 54%)
  percentage of SW480 cells in G0/G1 phase: 66%
[3]; 6.3 μM, 48 h (control 30%)
  percentage of SW480 cells in S phase: 40%
[3]; SW480, 6.3 μM, 72 h
  effect on the cell cycle: no impact
[4]; 24 h (control 100%)
  intracellular ROS levels relative to untreated cells: 70%
[4]; 48 h (control 100%)
  intracellular ROS levels relative to untreated cells: 157%
[4]; 72 h (control 100%)
  intracellular ROS levels relative to untreated cells: 290%

Source: paper PMC12498136, “Synthesis and biological evaluation of novel carnosic acid derivatives with anticancer activity” (RSC Advances, 2025)
